In patent US9518046B2 (Calitor Sciences, LLC, priority 2015, dated 2016):

Experiment: Pharmacokinetics after intravenous and oral administration in rats
Format: in vivo
Settings: Rats; iv dosing; dose 1 mg/kg (0.5 for Ex. 1, 10, 11, 35; 0.48 for Ex. 24)
Experimental: The LC/MS/MS system used in the analysis consists of an Agilent 1200 Series vacuum degasser, binary pump, well-plate autosampler, thermostatted column compartment, the Agilent G6430 Triple Quadrupole Mass Spectrometer with an electrosprayionization (ESI) source. Quantitative analysis was carried out using MRM mode. The parameters for MRM transitions are in the Table A.
An Agilent XDB-C18, 2.1×30 mm, 3.5 M column was used for the analysis. 5 L of the samples were injected. Analysis condition: The mobile phase was 0.1% formic acid in water (A) and 0.1% formic acid in methanol (B). The flow rate was 0.4 mL/min. And the gradient of Mobile phase was in the Table B.
Alternatively, an Agilent 6330 series LC/MS/MS spectrometer equipped with G1312A binary pumps, a G1367A autosampler and a G1314C UV detector were used in the analysis. An ESI source was used on the LC/MS/MS spectrometer. The analysis was done in positive ion mode as appropriate and the MRM transition for each analyte was optimized using standard solution. A Capcell MP-C18 100×4.6 mm I.D., […] column (Phenomenex, Torrance, Calif., USA) was used during the analysis. The mobile phase was 5 mM ammonia acetate, 0.1% MeOH in water (A): 5 mM ammonia acetate, 0.1% MeOH in acetonitrile (B) (70:30, v/v). The flow rate was 0.6 mL/min. Column was maintained at ambient temperature. 20 μL of the samples were injected.
The compounds disclosed herein are assessed in pharmacokinetic studies in mice, rats, dogs or monkeys. The compounds are administered as a water solution, 2% HPMC+1% TWEEN®80 in water solution, 5% DMSO+5% solutol in saline, 4% MC suspension or capsule. For the intravenous administration, the animals are generally given at 1 or 2 mg/kg dose. For the oral (p.o.) dosing, mice and rats are generally given 5 or 10 mg/kg dose, and dogs and monkeys are generally given 10 mg/kg dose. The blood samples (0.3 mL) are drawn at 0.25, 0.5, 1.0, 2.0, 3.0, 4.0, 6.0, 8.0, 12 and 24 h time points or 0.083, 0.25, 0.5, 1.0, 2.0, 4.0, 6.0, 8.0 and 24 h time points and centrifuged at 3,000 or 4000 rpm for 2 to 10 min. The plasma solutions are collected, stored at −20° C. or −70° C. until analyzed by LC/MS/MS as described above.

| SMILES | CL/F [mL/min/kg] |
| --- | --- |
| CC[C@H](Nc1ncnc(N)c1-c1ncc(C)o1)c1nc2cccc(Cl)c2c(=O)n1C1CC1 [Ex. 7, (S)-2-(1-((6-amino-5-(5-methyloxazol-2-yl)pyrimidin-4-yl)amino)propyl)-5-chloro-3-cyclopropylquinazolin-4(3H)-one] | 54.8 |
| CC[C@H](Nc1ncnc(N)c1-c1nc(C)no1)c1nc2cccc(F)c2c(=O)n1-c1ccccc1 [Ex. 39, (S)-2-(1-((6-amino-5-(3-methyl-1,2,4-oxadiazol-5-yl)pyrimidin-4-yl)amino)-propyl)-5-fluoro-3-phenylquinazolin-4(3H)-one] | 51.8 |
| CC[C@H](Nc1ncnc(N)c1C1=N[C@@H](C)CO1)c1nc2cccc(Cl)c2c(=O)n1C1CC1 [Ex. 5, 2-((S)-1-((6-amino-5-((S)-4-methyl-4,5-dihydrooxazol-2-yl)pyrimidin-4-yl)amino)propyl)-5-chloro-3-cyclopropylquinazolin-4(3H)-one] | 59.5 |
| CC[C@H](Nc1ncnc(N)c1-c1nc(C)no1)c1nc2cccc(C)c2c(=O)n1-c1ccccc1 [Ex. 37, (S)-2-(1-((6-amino-5-(3-methyl-1,2,4-oxadiazol-5-yl)pyrimidin-4-yl)amino)-propyl)-5-methyl-3-phenylquinazolin-4(3H)-one] | 67.5 |
| C[C@H](Nc1ncnc(N)c1-c1ncn(C)n1)c1nc2cccc(Cl)c2c(=O)n1C1CC1 [Ex. 44, (S)-2-(1-((6-amino-5-(1-methyl-1H-1,2,4-triazol-3-yl)pyrimidin-4-yl)amino)-ethyl)-5-chloro-3-cyclopropylquinazolin-4(3H)-one] | 73.7 |
| Cc1nc(-c2c(N)ncnc2N[C@@H](C)c2nc3cccc(Cl)c3c(=O)n2C2CC2)no1 [Ex. 33, (S)-2-(1-((6-amino-5-(5-methyl-1,2,4-oxadiazol-3-yl)pyrimidin-4-yl)amino)-ethyl)-5-chloro-3-cyclopropylquinazolin-4(3H)-one] | 65.5 |
| CC[C@H](Nc1ncnc(N)c1-c1nc(C)no1)c1nc2cccc(Cl)c2c(=O)n1-c1ccccc1 [Ex. 3, (S)-2-(1-((6-amino-5-(3-methyl-1,2,4-oxadiazol-5-yl)pyrimidin-4-yl)amino)-propyl) 5-chloro-3-phenylquinazolin-4(3H)-one] | 70.8 |
| CC[C@H](Nc1ncnc(N)c1-c1nc(C)no1)c1nc2cccc(Cl)c2c(=O)n1[C@@H]1C[C@@H]1F [Ex. 62] | 71.8 |
| CC[C@H](Nc1ncnc(N)c1-c1nnc(C)o1)c1nc2cccc(C)c2c(=O)n1-c1ccccc1C (single isomer, unassigned) [Ex. 31] | 64.8 |
| CC[C@H](Nc1ncnc(N)c1-c1ccon1)c1nc2cccc(F)c2c(=O)n1C1CC1 [Ex. 48, (S)-2-(1-((6-amino-5-(isoxazol-3-yl)pyrimidin-4-yl)amino)propyl)-3-cyclopropyl-5-fluoroquinazolin-4(3H)-one] | 67.3 |
| CC[C@H](Nc1ncnc(N)c1-c1nc(C)no1)c1nc2cccc(C)c2c(=O)n1C1CC1 [Ex. 21, (S)-2-(1-((6-amino-5-(3-methyl-1,2,4-oxadiazol-5-yl)pyrimidin-4-yl)amino)-propyl)-3-cyclopropyl-5-methylquinazolin-4(3H)-one] | 55.8 |
| CC[C@H](Nc1ncnc(N)c1-c1nc(C)no1)c1nc2cccc(C)c2c(=O)n1-c1ccccc1C (single isomer, unassigned) [Ex. 27] | 61.7 |
| CC(C)c1noc(-c2c(N)ncnc2N[C@@H](C)c2nc3cccc(Cl)c3c(=O)n2C2CC2)n1 [Ex. 57, (S)-2-(1-((6-amino-5-(3-isopropyl-1,2,4-oxadiazol-5-yl)pyrimidin-4-yl)amino)-ethyl)-5-chloro-3-cyclopropylquinazolin-4(3H)-one] | 83 |
| CCc1nc(-c2c(N)ncnc2N[C@@H](C)c2nc3cccc(Cl)c3c(=O)n2C2CC2)no1 [Ex. 61, (S)-2-(1-((6-amino-5-(5-ethyl-1,2,4-oxadiazol-3-yl)pyrimidin-4-yl)amino)ethyl)-5-chloro-3-cyclopropylquinazolin-4(3H)-one] | 97.5 |
